According to ChEMBL document CHEMBL1137427, “Efforts toward oral bioavailability in factor VIIa inhibitors” (Bioorg Med Chem Lett, 2006):
Each block holds one molecule with its values, some of them ahead of it.

Legend:
[1] = Mean residence time in iv dosed Sprague-Dawley rat; type: ADME, organism-based; settings: in vivo
[2] = target: Coagulation factor VII/tissue factor (Homo sapiens) (UniProt P08709+P13726); settings: Plasma
Description: Anticoagulant potency in human plasma as measured by prothrombin time

Coagulation factor VII = target: T1, Coagulation factor VII (Homo sapiens, UniProt P08709)
T1 sequence (P08709 whole entry): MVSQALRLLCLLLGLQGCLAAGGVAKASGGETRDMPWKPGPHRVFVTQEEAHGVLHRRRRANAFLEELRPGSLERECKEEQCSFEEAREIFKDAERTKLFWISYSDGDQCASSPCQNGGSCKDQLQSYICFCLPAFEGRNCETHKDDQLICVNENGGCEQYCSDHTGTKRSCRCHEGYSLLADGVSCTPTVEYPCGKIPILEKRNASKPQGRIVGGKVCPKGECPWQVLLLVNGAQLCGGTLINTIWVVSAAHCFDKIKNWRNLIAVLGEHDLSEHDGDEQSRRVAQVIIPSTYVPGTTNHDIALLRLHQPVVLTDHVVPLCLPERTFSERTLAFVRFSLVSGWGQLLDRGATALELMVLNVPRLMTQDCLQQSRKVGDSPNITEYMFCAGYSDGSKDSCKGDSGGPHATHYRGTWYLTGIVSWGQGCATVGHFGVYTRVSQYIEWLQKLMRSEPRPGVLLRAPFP

[3] = Mean residence time in iv dosed rat; type: ADME, organism-based; settings: in vivo
[4] = Terminal half life in portal vein catheter of Sprague-Dawley rat at 10 mg/kg, po; type: ADME, organism-based; design: dose 10 mg/kg, route oral; settings: in vivo
[5] = Tmax in jugular vein catheter of Sprague-Dawley rat at 10 mg/kg, po; type: ADME, organism-based; design: dose 10 mg/kg, route oral; settings: in vivo
[6] = AUC in portal vein catheter of Sprague-Dawley rat at 10 mg/kg, po; type: ADME, organism-based; design: dose 10 mg/kg, route oral; settings: plasma
[7] = Cmax in jugular vein catheter of Sprague-Dawley rat at 10 mg/kg, po; type: ADME, organism-based; design: dose 10 mg/kg, route oral; settings: in vivo
[8] = AUC in jugular vein catheter of Sprague-Dawley rat at 10 mg/kg, po; type: ADME, organism-based; design: dose 10 mg/kg, route oral; settings: plasma
[9] = Tmax in portal vein catheter of Sprague-Dawley rat at 10 mg/kg, po; type: ADME, organism-based; design: dose 10 mg/kg, route oral; settings: in vivo
[10] = Terminal half life in jugular vein catheter of Sprague-Dawley rat at 10 mg/kg, po; type: ADME, organism-based; design: dose 10 mg/kg, route oral; settings: in vivo
[11] = Cmax in portal vein catheter of Sprague-Dawley rat at 10 mg/kg, po; type: ADME, organism-based; design: dose 10 mg/kg, route oral; settings: in vivo
[12] = Oral bioavailability in Sprague-Dawley rat at 10 mg/kg, po (AUC po, jv/AUC iv, jv); type: ADME, organism-based; settings: in vivo
[13] = Oral absorption in Sprague-Dawley rat at 10 mg/kg, po (AUC po, pv/AUC iv, jv); type: ADME, organism-based; design: dose 10 mg/kg, route oral; settings: in vivo

SMILES: CN(C)CCCC(=O)NCc1ccc(O)c(-c2cccc(-c3cc4cc(C(=N)N)ccc4[nH]3)c2O)c1
- MRT [1]: 50 min
- 2PT [2]: 0.9 µM
- Ki (Coagulation factor VII): 16 nM

SMILES: N=C(N)c1ccc2[nH]c(-c3cccc(-c4cc(CNC(N)=O)ccc4O)c3O)nc2c1
- 2PT [2]: 2.3 µM
- MRT [3]: 20 min
- Ki (Coagulation factor VII): 14 nM

SMILES: N=C(N)c1ccc2[nH]c(-c3cc(CC(=O)O)cc(-c4cc(CNC(N)=O)ccc4O)c3O)nc2c1
- MRT [3]: < 20 min
- Ki (Coagulation factor VII): 14 nM

SMILES: CC(=O)NCc1ccc(O)c(-c2cccc(-c3cc4cc(C(=N)N)ccc4[nH]3)c2O)c1
- Ki (Coagulation factor VII): 120 nM

SMILES: CCCCCC(=O)NCc1ccc(O)c(-c2cccc(-c3cc4cc(C(=N)N)ccc4[nH]3)c2O)c1
- half-life [4]: 26 min
- MRT [1]: 89 min
- Tmax [5]: 30 min
- AUC [6]: 0.0147 µM·h
- 2PT [2]: 1.4 µM
- Cmax [7]: 12 nM
- AUC [8]: 0.0122 µM·h
- Tmax [9]: 40 min
- half-life [10]: 37 min
- Ki (Coagulation factor VII): 13 nM
- Cmax [11]: 14 nM

SMILES: CCCCCC(=O)NCc1ccc(O)c(-c2cccc(-c3cc4cc(C(=N)NO)ccc4[nH]3)c2O)c1
- half-life [4]: 49 min
- Tmax [5]: 30 min
- AUC [6]: 2.03 µM·h
- bioavailability [12]: 11%
- Cmax [7]: 1730 nM
- AUC [8]: 2.4 µM·h
- Tmax [9]: 31 min
- half-life [10]: 54 min
- Cmax [11]: 1310 nM
- Fa [13]: 9%

SMILES: N=C(N)c1ccc2[nH]c(-c3cccc(-c4cc(CNC(=O)N5CCOCC5)ccc4O)c3O)cc2c1
- 2PT [2]: 2 µM
- Ki (Coagulation factor VII): 17 nM

Next, values leading:

- 2PT [2]: 1.9 µM
- MRT [3]: > 60 min
- Ki (Coagulation factor VII): 1 nM
SMILES: N=C(N)c1ccc2[nH]c(-c3cc(C(CC(=O)O)C(=O)O)cc(-c4cc(CNC(N)=O)ccc4O)c3O)nc2c1 (centres undefined)

- 2PT [2]: 2.5 µM
- MRT [3]: < 20 min
- Ki (Coagulation factor VII): 5 nM
SMILES: N=C(N)c1ccc2[nH]c(-c3cc(F)cc(-c4cc(CNC(N)=O)ccc4O)c3O)nc2c1

- MRT [1]: 117 min
- 2PT [2]: 0.9 µM
- Ki (Coagulation factor VII): 3 nM
SMILES: N=C(N)c1ccc2[nH]c(-c3cccc(-c4cc(CNC(=O)CO)ccc4O)c3O)cc2c1

- 2PT [2]: 2 µM
- MRT [3]: < 20 min
- Ki (Coagulation factor VII): 4 nM
SMILES: Cc1cc(-c2nc3cc(C(=N)N)ccc3[nH]2)c(O)c(-c2cc(CNC(N)=O)ccc2O)c1
